# Reference: ChEMBL document CHEMBL1201862, “PubChem BioAssay data set” (2004)
# The source made the active and inactive calls. Rule as the data show it, for most assays here: actives have a measured EC50 and inactives only a lower limit.
# Assays:
# [1] = Luminescence Cell-Based Dose Retest to Confirm Inhibitors of Cancer Stem Cells. [Related pubchem assays (depositor defined):AID2717, AID2721]; assay type: functional; settings: Homo sapiens
# [2] = inhibitors of intracellular T. cruzi replication, confirmation, NIH3T3 host cells, beta-gal luminescence (AID 2044); assay type: functional, cell-based;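 also: intracellular parasites grown in NIH/3T3 mouse fibroblasts as host cells; luminescent beta-galactosidase reporter signal from transgenic T. cruzi replicating inside host cells; inhibitors lower the luminescence signal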
# Paired box protein Pax-8 = Paired box protein Pax-8 (Homo sapiens, UniProt Q06710); assay: inhibitors of PAX8-driven TPO luciferase reporter, dose response, RMG-I cells, cherry-pick (AID 687027); assay type: functional, cell-based;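 also: luciferase reporter driven by Pax8 target thyroperoxidase promoter measured by SteadyGlo luminescence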
# Chain of Paired box protein Pax-8 (Q06710 whole entry): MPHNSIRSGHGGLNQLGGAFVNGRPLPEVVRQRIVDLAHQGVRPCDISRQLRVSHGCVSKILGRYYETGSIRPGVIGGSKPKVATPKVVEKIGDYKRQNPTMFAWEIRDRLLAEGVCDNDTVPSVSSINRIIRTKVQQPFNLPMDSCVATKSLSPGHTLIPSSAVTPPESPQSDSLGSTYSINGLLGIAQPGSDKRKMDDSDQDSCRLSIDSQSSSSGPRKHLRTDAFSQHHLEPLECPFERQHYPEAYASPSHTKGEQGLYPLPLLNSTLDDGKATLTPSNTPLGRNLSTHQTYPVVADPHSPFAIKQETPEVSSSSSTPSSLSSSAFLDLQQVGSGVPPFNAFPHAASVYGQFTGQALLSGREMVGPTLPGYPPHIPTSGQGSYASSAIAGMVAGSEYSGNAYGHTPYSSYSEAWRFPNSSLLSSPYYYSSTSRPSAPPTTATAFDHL
# [3] = cytotoxicity toward NIH3T3 fibroblasts, dose response, counter-screen, cell-based, ATP luminescence, mouse fibroblasts (AID 2010); assay type: functional;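 also: cells exposed to compound for about 90 hours before reading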
# [4] = Luminescence Cell-Based Dose Confirmation HTS to Identify Activators of 5'UTR Stem-Loop Driven Alpha-Synuclein mRNA Translation in H4 Neuroglioblastoma Cells. [Related pubchem assays: 1829 (Project Summary), 1814 (Primary HTS)]; assay type: functional
# H4 = assay: Luminescence Cell-Based Dose Response HTS to Identify Activators of 5'UTR Stem-Loop Driven Prion Protein mRNA Translation in H4 Neuroglioblastoma Cells. [Related pubchem assays: 1829 (Project Summary), 1814 (Primary HTS)]; assay type: functional; settings: Homo sapiens
# [5] = Luminescence Cell-Based Dose Response HTS to Identify Activators of Luciferase Translation or Activity in H4 […] Cells. [Related pubchem assays: 1829 (Project Summary), 1814 (Primary HTS)]; assay type: functional
# cells [6] = assay type: functional, cell-based
# cells [7] = assay type: functional, cell-based; remark: listed apart in the source
# [8] = HEp-2 cell cytotoxicity, dose response, cytotoxicity control for RSV inhibitor project, HTS (AID 2410); assay type: functional; settings: human respiratory syncytial virus
# [9] = inhibitors of firefly luciferase expression or activity, dose response, H4 neuroglioma cells, luminescence (AID 1990); assay type: functional, cell-based
# [10] = inhibitors of SNCA 5'UTR-driven reporter translation, confirmation, H4 neuroglioma cells, luminescence (AID 1988); assay type: functional, cell-based
# [11] = Luminescence Cell-Based Dose Response HTS to Identify Inhibitors of 5'UTR Stem-Loop Driven Prion Protein mRNA Translation in H4 Neuroglioblastoma Cells. [Related pubchem assays: 1827 (Project Summary), 1813 (Primary HTS)]; assay type: functional
# INS1 = assay: beta cell apoptosis inhibitors, cytokine rescue, dose response, luminescence, retest (AID 449756); assay type: functional, cell-based; settings: Rattus norvegicus;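 also: cell death triggered by IL-1 beta plus TNF-alpha plus IFN-gamma mixture; protective hits raise ATP signal compared with cytokine alone wells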
# [12] = HepG2 cell cytotoxicity, dose response, cytotoxicity control for Shn3 inhibitor project, CellTiter-Glo, cherry-picked (AID 624134); assay type: functional, cell-based
# [13] = Shn3 3'UTR reporter inhibitors, dose response, cell-based, Clone20 osteoblasts, firefly luciferase, cherry-picked (AID 624132); assay type: functional;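 also: firefly luciferase luminescence from reporter carrying the Shn3 3'UTR in osteoblasts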
# [14] = control 3'UTR Renilla luciferase suppression, dose response, counter-screen for Shn3 inhibitor project, cell-based, Clone20-Shn3RL, cherry-picked (AID 624133); assay type: functional
# Cytochrome P450 1A2 = biological target: T1, Cytochrome P450 1A2 (Homo sapiens, UniProt P05177);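 also: PubChem cytochrome P450 panel assay, CYP1A2 panel member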
# T1 sequence (P05177 whole entry): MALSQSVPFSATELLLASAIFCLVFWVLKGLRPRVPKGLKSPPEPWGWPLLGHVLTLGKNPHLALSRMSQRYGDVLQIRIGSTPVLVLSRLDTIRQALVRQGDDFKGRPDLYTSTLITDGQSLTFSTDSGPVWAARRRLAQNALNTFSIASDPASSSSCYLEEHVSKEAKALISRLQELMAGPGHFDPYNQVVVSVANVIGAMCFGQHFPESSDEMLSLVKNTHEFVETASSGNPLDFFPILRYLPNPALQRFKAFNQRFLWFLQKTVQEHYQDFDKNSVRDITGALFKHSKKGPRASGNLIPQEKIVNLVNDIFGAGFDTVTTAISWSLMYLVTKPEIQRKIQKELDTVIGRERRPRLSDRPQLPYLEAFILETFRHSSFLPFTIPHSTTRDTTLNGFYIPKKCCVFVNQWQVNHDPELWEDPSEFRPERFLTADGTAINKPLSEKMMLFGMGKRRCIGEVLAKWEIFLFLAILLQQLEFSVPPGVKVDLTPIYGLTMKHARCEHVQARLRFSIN
smiles,measurement,setting,value
Cc1c(C(=O)c2cccc3ccccc23)c2cccc3c2n1[C@H](CN1CCOCC1)CO3,AC50,[1],3.47 µM (active)
same,EC50,[2],0.887 µM (active)
same,AC50,Paired box protein Pax-8,8.77 µM (active)
same,EC50,[3],55.9 µM (active)
O=C(COC(=O)/C(=C/c1cccs1)c1cccs1)NC(c1ccccc1)c1ccccc1,AC50,Paired box protein Pax-8,8.36 µM (active)
CC(=O)C(Sc1nn(C)c(=S)s1)C(=O)Nc1ccccc1 (configuration not stated),EC50,[4],23.9 µM (active)
same,EC50,H4,14.3 µM (active)
same,EC50,[5],12.4 µM (active)
CC(=O)Nc1c([N+](=O)[O-])cc(C)c(Cl)c1[N+](=O)[O-],EC50,cells [6],> 350 µM (not active)
same,EC50,cells [7],> 350 µM (not active)
O=C(NS(=O)(=O)c1ccc2c(c1)OCCO2)c1ccccc1,EC50,cells [6],> 350 µM (not active)
same,EC50,cells [7],> 350 µM (not active)
Cc1nn(Cc2ccccc2Cl)c2sc(C(=O)NC(C)(C)C)cc12,CC50,[8],> 50 µM (active)
c1ccc(-c2ccc(-c3csnn3)cc2)cc1,EC50,[4],0.186 µM (active)
same,EC50,H4,27.5 µM (active)
same,EC50,[5],0.326 µM (active)
COc1ccc(-c2csc(NC(=S)NC(=O)/C=C/c3ccco3)n2)cc1Br,AC50,[1],0.47 µM (active)
same,EC50,[9],> 120 µM (not active)
same,EC50,[10],9.94 µM (inconclusive)
same,EC50,[11],> 120 µM (not active)
O=C(CN1CCCC1)Nc1nc(-c2ccc3c(c2)CCN3C(=O)c2ccccc2F)cs1,EC50,[4],12.9 µM (active)
same,EC50,H4,16.7 µM (inconclusive)
same,EC50,[5],24.4 µM (active)
O=C(c1ccc(-c2ccc(Cl)cc2)o1)N1CCN(c2ccc([N+](=O)[O-])cc2Cl)CC1,CC50,[8],9.46 µM (active)
same,AC50,INS1,3.58 µM (active)
Cc1nn(C)c(Cl)c1CN1CCCC(CO)(Cc2ccccc2)C1 (configuration not stated),CC50,[8],> 50 µM (active)
CCCCNc1nc2c(c(=O)n(C)c(=O)n2C)n1Cc1cccc(OC)c1,AC50,[12],3.87 µM (active)
same,AC50,[13],0.284 µM (active)
same,AC50,[14],1.13 µM (active)
Cc1oc(=O)c(NC(=O)c2ccc(Cl)cc2)cc1C(=O)c1ccccc1,AC50,[12],> 70 µM (inactive)
same,AC50,[13],32.1 µM (active)
Cc1cccc2sc(N3CCN(C(=O)C4COc5ccccc5O4)CC3)nc12 (configuration not stated),CC50,[8],25.8 µM (active)
CC(C)(C)c1ccc(OC(=O)N2CCOCC2)cc1,EC50,[4],23.7 µM (active)
same,EC50,H4,1.3 µM (active)
same,EC50,[5],> 120 µM (not active)
O=C(NCCc1ccccc1)C1CCN(S(=O)(=O)c2ccc(-n3cnnn3)cc2)CC1,EC50,cells [6],> 350 µM (not active)
same,EC50,cells [7],> 350 µM (not active)
COc1cccc(Cn2nnc3c(O)nc(C4CCCN(C(=O)c5ccccc5Cl)C4)nc32)c1 (configuration not stated),AC50,Cytochrome P450 1A2,25.1 µM (inconclusive)
same,EC50,[9],> 120 µM (not active)
same,EC50,[10],> 120 µM (not active)
same,EC50,[11],> 120 µM (not active)
COC(=O)[C@@]12CCCCN1[C@H](c1ccc(-c3ccc(OC)cc3)cc1)[C@@H]1C(=O)N(C)C(=O)[C@@H]12,CC50,[8],17.7 µM (active)
Cn1c(SCc2ccc(F)cc2Cl)nc2ccccc2c1=O,AC50,[12],8.38 µM (active)
same,AC50,[13],8.65 µM (active)
same,AC50,[14],3.09 µM (active)
Cc1ccc(OCc2nnc(SCC(=O)Nc3cccc4ccccc34)n2-c2ccccc2)cc1,EC50,[9],> 120 µM (not active)
same,EC50,[10],> 120 µM (not active)
same,EC50,[11],> 120 µM (not active)
COc1ccc(-c2nc(-c3ccc(NC(=O)c4ccncc4)cc3)no2)cc1OC,AC50,[12],4.96 µM (active)
same,AC50,[13],2.36 µM (active)
same,AC50,[14],3.85 µM (active)
Cc1noc(C)c1COC(=O)c1ccc(-c2nc3ccccc3s2)s1,EC50,[4],0.414 µM (active)
same,EC50,H4,13 µM (active)
same,EC50,[5],0.245 µM (active)
CCN(CC)c1ccc(NC(=O)CSc2nc(O)c3c(C)cc(C)nc3n2)cc1,EC50,cells [6],> 350 µM (not active)
same,EC50,cells [7],> 350 µM (not active)
O=C(COC(=O)Cc1ccc(S(=O)(=O)N2CCCCC2)s1)Nc1ccc2c(c1)OCO2,EC50,cells [6],> 350 µM (not active)
same,EC50,cells [7],> 350 µM (not active)
COc1cc(C)ccc1OCCOc1ccccc1Cl,EC50,[4],32.5 µM (active)
same,EC50,H4,18.6 µM (active)
same,EC50,[5],87.3 µM (active)
O=C(NCCc1csc(-c2cccc(F)c2)n1)c1ccco1,EC50,cells [6],> 350 µM (not active)
same,EC50,cells [7],> 350 µM (not active)
CCOc1ccc(-c2nnc(N3CCCCC3)c3ccccc23)cc1,AC50,[12],> 70 µM (inactive)
same,AC50,[13],14.9 µM (active)
same,AC50,[14],8.24 µM (active)
CCOC(=O)Cc1csc(NC(=O)/C=C/c2ccc(Cl)cc2)n1,CC50,[8],4.57 µM (active)
CC1CCc2c(sc3nc(CSc4n[nH]c(N)n4)nc(O)c23)C1 (configuration not stated),EC50,[4],15.5 µM (active)
same,EC50,H4,13.2 µM (active)
same,EC50,[5],27.2 µM (active)
CC(NC(=O)c1cc(COc2ccc3ncccc3c2)on1)c1ccc(F)cc1 (configuration not stated),AC50,[12],2.86 µM (active)
same,AC50,[13],2.28 µM (active)
same,AC50,[14],2.2 µM (active)
same,AC50,INS1,4.52 µM (active)
O=C(CSc1nc(-c2ccc(F)cc2)cs1)N1CCOCC1,EC50,[4],10.1 µM (active)
same,EC50,H4,14.3 µM (active)
same,EC50,[5],7.79 µM (active)
Cn1nc(C(F)(F)F)cc1C(=O)NC1CCCCCC1,EC50,cells [6],> 350 µM (not active)
same,EC50,cells [7],> 350 µM (not active)
CN(C#N)c1nccc(-c2cccs2)n1,CC50,[8],23.8 µM (active)
CCC(C)[C@H](NC(=O)N1CC(=O)Nc2ccccc21)C(=O)Nc1ccccc1C (some centres not stated),EC50,[4],> 120 µM (not active)
same,EC50,H4,> 120 µM (not active)
same,EC50,[5],27.5 µM (active)
CCn1nc(C)c(NC(=O)/C=C/c2ccc(OC)c(COc3ccc(Br)cc3)c2)c1C,CC50,[8],31.6 µM (active)
same,EC50,[2],2.52 µM (active)
same,EC50,[10],13.4 µM (active)
same,EC50,[11],23.7 µM (active)
same,EC50,[3],> 60 µM (not active)
CCOC(=O)C1CCN(C(=O)C2CCCN(c3ncnc4c3nc3n4CCCCC3)C2)CC1 (configuration not stated),EC50,cells [6],> 350 µM (not active)
same,EC50,cells [7],> 350 µM (not active)
Cc1cc(N2CCCC2)ccc1/C=C1\NC(=S)N(C)C1=O,EC50,[4],22.1 µM (active)
same,EC50,H4,35.5 µM (active)
same,EC50,[5],20 µM (active)
c1ccc(C2=Nc3ccccc3SC2c2nc3ccccc3[nH]2)cc1 (configuration not stated),EC50,[4],0.47 µM (active)
same,EC50,H4,> 120 µM (not active)
same,EC50,[5],24.1 µM (active)
CC(Sc1nnc(COc2ccc([N+](=O)[O-])cc2)n1C)C(=O)O (configuration not stated),EC50,cells [6],> 350 µM (not active)
same,EC50,cells [7],> 350 µM (not active)
O=C1N/C(=C/c2cccs2)C(=O)N1Cc1ccc(Br)cc1,EC50,cells [6],> 350 µM (not active)
same,EC50,cells [7],> 350 µM (not active)
CCc1ccc(CNCc2ccc(OCC(O)CN(C)Cc3ccccc3)cc2)nc1 (configuration not stated),AC50,[12],25 µM (active)
same,AC50,[13],4.43 µM (active)
same,AC50,[14],14.2 µM (active)
Cc1cc(Sc2ccc([N+](=O)[O-])cn2)ccc1Br,AC50,[12],> 70 µM (inactive)
same,AC50,[14],31.4 µM (active)
CNc1nc(N/N=C/c2cc3c(cc2[N+](=O)[O-])OCO3)nc(Nc2ccccc2)n1,EC50,[2],2.42 µM (active)
same,EC50,[9],9.21 µM (active)
same,EC50,[10],12.7 µM (active)
same,EC50,[11],9.97 µM (active)
same,AC50,INS1,13.2 µM (active)
same,EC50,[3],> 60 µM (inconclusive)
Cc1ccc(S(=O)(=O)N(C)C[C@H]2Oc3ccc(NC(=O)Nc4ccc(C(F)(F)F)cc4)cc3CC(=O)N([C@H](C)CO)C[C@@H]2C)cc1,AC50,Paired box protein Pax-8,7.34 µM (active)
C[C@@H]1CCCCO[C@@H](CN(C)Cc2ccc(C(F)(F)F)cc2)[C@H](C)CN([C@@H](C)CO)C(=O)c2cc(NS(=O)(=O)c3ccc(Cl)cc3)ccc2O1,AC50,Paired box protein Pax-8,9.89 µM (active)
C(=N\N1CCN(C(c2ccccc2)c2ccccc2)CC1)/c1ccc2c(c1)OCO2,EC50,[9],> 120 µM (not active)
same,EC50,[10],> 120 µM (not active)
same,EC50,[11],0.672 µM (active)
Fc1cnc(N/N=C/c2ccc(-c3ccc(Br)cc3)o2)nc1N1CCOCC1,CC50,[8],6.89 µM (active)
